Where two headings read alike, the source gives them in different places.
How the values were obtained:
[1] = biological target: TcdB CPD domain (Clostridioides difficile, UniProt P18177); assay: competition labeling assay with TAMRA–AWP-19; format: biochemical, Clostridium difficile; settings: IP6-activated CPD, TAMRA–AWP-19 labeling
[2] = biological target: full-length TcdB (Clostridioides difficile, UniProt P18177); format: biochemical, Clostridium difficile
[3] = biological target: full-length TcdA (Clostridioides difficile, UniProt P16154); assay: IP6-induced autoprocessing / TAMRA–AWP-19 labeling of full-length TcdA; format: biochemical, Clostridium difficile
[4] = test system: TcdB-induced cell rounding, human foreskin fibroblast (HFF) cells; assay: cells; format: cell-based; settings: for EC50: Homo sapiens, HFF
[5] = test system: large clostridial toxins (TcdA and TcdB) in patient stool sample, cell rounding; assay: cells; format: cell-based; settings: Homo sapiens, read-out: EC50 for inhibition of toxin-induced cytopathology
[6] = biological target: TcdB GTD domain (amino acids 1 to 543) (Clostridioides difficile, UniProt P18177); format: biochemical, Clostridium difficile
TcdB GTD domain (amino acids 1 to 543), sequence (P18177 1-543): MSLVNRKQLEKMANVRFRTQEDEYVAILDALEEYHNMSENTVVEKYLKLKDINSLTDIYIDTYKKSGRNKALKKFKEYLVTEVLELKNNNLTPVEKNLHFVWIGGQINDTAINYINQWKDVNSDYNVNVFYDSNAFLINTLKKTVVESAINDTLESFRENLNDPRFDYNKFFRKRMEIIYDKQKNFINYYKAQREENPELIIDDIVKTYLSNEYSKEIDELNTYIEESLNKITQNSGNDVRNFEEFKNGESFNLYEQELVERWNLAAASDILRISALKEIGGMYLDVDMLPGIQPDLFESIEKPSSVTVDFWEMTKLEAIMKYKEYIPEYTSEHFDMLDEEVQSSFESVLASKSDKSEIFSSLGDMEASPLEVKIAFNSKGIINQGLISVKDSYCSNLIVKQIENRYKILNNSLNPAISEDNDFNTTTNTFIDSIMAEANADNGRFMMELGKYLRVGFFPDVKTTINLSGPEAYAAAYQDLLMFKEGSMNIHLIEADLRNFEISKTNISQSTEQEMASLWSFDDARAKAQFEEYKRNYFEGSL

[7] = biological target: TcdB (Clostridioides difficile, UniProt P18177); assay: murine systemic intoxication; format: in vivo, mouse; settings: mice, TcdB 1.0 µg/kg i.p. pretreated with 100 nM ebselen
[8] = test system: C. difficile strain 630; assay: mouse C. difficile infection model; format: in vivo; settings: for histopathological score, dose-response study: 5-day treatment
[9] = 100 mg/kg daily oral gavage, day 5, vs vehicle

full-length TcdB, sequence (P18177 whole entry): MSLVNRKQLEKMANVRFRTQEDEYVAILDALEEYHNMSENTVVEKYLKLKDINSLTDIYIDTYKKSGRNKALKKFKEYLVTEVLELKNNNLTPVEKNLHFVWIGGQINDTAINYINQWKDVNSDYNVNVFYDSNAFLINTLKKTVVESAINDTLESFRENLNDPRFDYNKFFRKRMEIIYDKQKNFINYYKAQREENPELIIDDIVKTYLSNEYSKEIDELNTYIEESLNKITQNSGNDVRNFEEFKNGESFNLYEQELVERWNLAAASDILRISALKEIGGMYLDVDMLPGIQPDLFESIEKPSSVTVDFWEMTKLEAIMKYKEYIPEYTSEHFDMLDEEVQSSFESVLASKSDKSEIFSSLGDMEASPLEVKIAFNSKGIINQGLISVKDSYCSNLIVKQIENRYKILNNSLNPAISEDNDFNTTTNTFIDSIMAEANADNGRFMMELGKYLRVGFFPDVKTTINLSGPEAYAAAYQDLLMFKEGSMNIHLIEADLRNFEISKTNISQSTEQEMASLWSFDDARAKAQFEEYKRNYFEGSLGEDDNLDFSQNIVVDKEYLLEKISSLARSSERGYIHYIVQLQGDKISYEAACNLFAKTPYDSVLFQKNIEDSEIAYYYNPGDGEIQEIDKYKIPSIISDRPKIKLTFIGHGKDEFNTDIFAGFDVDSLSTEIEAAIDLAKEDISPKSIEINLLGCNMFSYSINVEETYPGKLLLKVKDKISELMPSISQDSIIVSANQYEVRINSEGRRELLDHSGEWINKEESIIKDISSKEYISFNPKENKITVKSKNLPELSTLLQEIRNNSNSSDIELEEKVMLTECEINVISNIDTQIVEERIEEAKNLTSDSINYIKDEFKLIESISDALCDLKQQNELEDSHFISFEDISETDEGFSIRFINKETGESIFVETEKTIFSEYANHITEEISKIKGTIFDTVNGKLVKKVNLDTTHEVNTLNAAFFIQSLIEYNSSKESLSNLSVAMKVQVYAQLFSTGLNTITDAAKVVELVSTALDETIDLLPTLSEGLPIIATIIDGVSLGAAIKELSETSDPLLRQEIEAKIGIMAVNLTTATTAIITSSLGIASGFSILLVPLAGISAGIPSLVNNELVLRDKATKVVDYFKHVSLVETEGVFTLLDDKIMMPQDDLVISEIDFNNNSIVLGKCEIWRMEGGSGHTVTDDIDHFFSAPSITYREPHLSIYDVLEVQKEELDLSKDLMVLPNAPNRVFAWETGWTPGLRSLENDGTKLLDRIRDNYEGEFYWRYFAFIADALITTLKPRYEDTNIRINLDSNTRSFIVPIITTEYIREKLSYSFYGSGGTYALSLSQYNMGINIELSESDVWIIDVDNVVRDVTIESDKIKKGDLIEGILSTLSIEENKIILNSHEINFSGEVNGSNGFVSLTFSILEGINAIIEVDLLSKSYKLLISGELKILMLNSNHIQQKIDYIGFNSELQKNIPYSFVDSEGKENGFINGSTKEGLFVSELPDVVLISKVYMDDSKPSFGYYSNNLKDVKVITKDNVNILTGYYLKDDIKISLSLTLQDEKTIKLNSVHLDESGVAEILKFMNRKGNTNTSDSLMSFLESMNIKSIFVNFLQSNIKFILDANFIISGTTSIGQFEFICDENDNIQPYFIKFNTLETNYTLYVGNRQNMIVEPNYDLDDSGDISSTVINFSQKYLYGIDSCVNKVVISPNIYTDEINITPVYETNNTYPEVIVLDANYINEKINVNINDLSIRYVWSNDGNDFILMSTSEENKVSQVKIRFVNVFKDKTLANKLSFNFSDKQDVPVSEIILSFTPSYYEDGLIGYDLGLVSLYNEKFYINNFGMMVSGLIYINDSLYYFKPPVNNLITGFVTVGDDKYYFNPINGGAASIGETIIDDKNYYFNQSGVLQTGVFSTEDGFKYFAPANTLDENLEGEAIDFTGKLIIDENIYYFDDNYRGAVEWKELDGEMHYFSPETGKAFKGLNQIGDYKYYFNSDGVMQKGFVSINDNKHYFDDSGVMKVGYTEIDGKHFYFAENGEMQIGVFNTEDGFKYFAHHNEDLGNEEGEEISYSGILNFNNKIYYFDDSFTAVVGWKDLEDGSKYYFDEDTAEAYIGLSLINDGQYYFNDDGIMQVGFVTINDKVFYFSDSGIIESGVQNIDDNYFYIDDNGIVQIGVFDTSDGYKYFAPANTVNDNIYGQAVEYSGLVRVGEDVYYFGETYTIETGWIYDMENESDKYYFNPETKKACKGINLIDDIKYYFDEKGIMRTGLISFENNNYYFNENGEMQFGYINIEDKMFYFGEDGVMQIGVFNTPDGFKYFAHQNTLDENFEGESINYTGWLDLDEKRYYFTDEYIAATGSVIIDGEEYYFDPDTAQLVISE
TcdB CPD domain, sequence (P18177 544-799 limits assumed): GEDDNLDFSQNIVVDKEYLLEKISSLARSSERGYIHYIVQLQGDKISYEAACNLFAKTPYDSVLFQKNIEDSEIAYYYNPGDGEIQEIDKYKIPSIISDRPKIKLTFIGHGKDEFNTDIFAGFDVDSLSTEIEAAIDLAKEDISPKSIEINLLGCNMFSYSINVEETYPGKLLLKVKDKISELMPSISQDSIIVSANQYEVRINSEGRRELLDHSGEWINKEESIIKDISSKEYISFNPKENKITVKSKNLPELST

Q: With O=c1c2ccccc2[se]n1-c1ccccc1 [ebselen, 2-phenyl-1,2-benzoselenazol-3-one] as the molecule, how does the “inhibition of IP6-induced labeling of the CPD active-site cysteine” value [1] read?
A: low nanomolar concentrations

Q: And the “concentration giving complete inhibition of IP6-induced release of the GTD” value [2]?
A: 20 nM

Q: What about the “inhibition of IP6-induced autoprocessing of full-length TcdB” value [2] of the same molecule?
A: low nanomolar potency

Q: And the “inhibition of IP6-induced autoprocessing of full-length TcdA” value [3]?
A: low nanomolar potency

Q: What about the “glucosylated Rac1 (Western blot, mAb102 nonglucosylated Rac1)” value [4] of the same molecule?
A: decreased with increasing amounts of ebselen

Q: What about the “protection against delayed toxicity of L543A noncleavable mutant TcdB” value [4] of the same molecule?
A: showed further protection

Q: And the EC50 ([4]; read-out: EC50 for blocking cell rounding)?
A: 20.5 nM

Q: And the EC50 ([4]; read-out: EC50 for protection against cell rounding)?
A: 217 nM

Q: And the EC50 [5]?
A: 372 nM

Q: What about the “inhibition of glucosyltransferase activity of the GTD domain” value [6] of the same molecule?
A: did not show any inhibition

Q: And the “clinical signs of toxin action (vital signs)” value [7]?
A: no significant changes in vital signs

Q: What about the “histopathological score, dose-response study” value ([8]; 1 mg/kg daily) of the same molecule?
A: no improvement in histopathological score

Q: And the “histopathological score, dose-response study” value ([8]; 10 mg/kg daily)?
A: partial response

Q: What about the “C. difficile CFU counts in feces” value ([8]; 100 mg/kg daily oral gavage, 5-day experiment) of the same molecule?
A: did not significantly affect

Q: And the “histopathological scores for cell infiltration, submucosal edema, and mucosal hypertrophy” value [8, 9]?
A: significantly lower

Q: And the “overall histopathological (clinical) score” value [8, 9]?
A: statistically significant drop in clinical score

Q: What about the “cell rounding activity of shed toxin in feces (quantity of feces required to induce 50% cell rounding)” value ([8]; 100 mg/kg daily oral gavage, day 5 after infection) of the same molecule?
A: reduction in cell rounding activity of shed toxin

Q: What about the “cleaved form of GTD in colon tissues (Western blot)” value ([8]; 100 mg/kg daily oral gavage, vs vehicle) of the same molecule?
A: reduced the amount of the cleaved form of GTD

Q: And the “histopathological score, dose-response study” value ([8]; 100 mg/kg daily)?
A: virtually complete response
